Measurements from ChEMBL document CHEMBL1201862, “PubChem BioAssay data set” (2004).
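Values below derive from 48-hour exposures of cells grown in 96-well plates, with endpoints linearly interpolated between the two concentrations bracketing the appropriate inhibition level. GI50 is the concentration that inhibits growth by half.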 Activity calls are given as the source filed them. No stated cut-off is given here; in the data, active = GI50 up to about 1.1 µM and inactive = higher.

Legend:
Experiment in all cases: NCI anticancer screen, dose series, 48 h
BT-549 = tested on: BT-549
CCRF-CEM = tested on: CCRF-CEM
COLO 205 = tested on: COLO 205
HCC 2998 = tested on: HCC 2998
HCT-116 = tested on: HCT-116
HOP-62 = tested on: HOP-62
HT-29 = tested on: HT-29
Hs-578T = tested on: Hs-578T
K562 = tested on: K562
KM12 = tested on: KM12
M14 = tested on: M14
MCF7 = tested on: MCF7
NCI-H23 = tested on: NCI-H23
NCI-H460 = tested on: NCI-H460
OVCAR-4 = tested on: OVCAR-4
SF-268 = tested on: SF-268
SK-MEL-28 = tested on: SK-MEL-28
TK-10 = tested on: TK-10
UACC-62 = tested on: UACC-62
SNB-78 = tested on: SNB-78

Measured: GI50

CC(C)=NNc1ncnc2[nH]cnc12
inactive: BT-549 48.1 µM | CCRF-CEM 4.9 µM | COLO 205 5.94 µM | HCC 2998 5.04 µM | HCT-116 3.71 µM | HOP-62 5.12 µM | HT-29 6.04 µM | Hs-578T 11.8 µM | K562 > 19.6 µM | KM12 5.33 µM | M14 4.65 µM | MCF7 4.07 µM | NCI-H23 29.6 µM | NCI-H460 7.06 µM | OVCAR-4 9.95 µM | SF-268 7.89 µM | SK-MEL-28 63 µM | TK-10 4.9 µM | UACC-62 2.68 µM

O=CN/C=C/c1ccccc1
inactive: CCRF-CEM > 100 µM | COLO 205 > 63.2 µM | HCC 2998 > 100 µM | HCT-116 > 100 µM | HOP-62 > 100 µM | HT-29 > 100 µM | K562 > 31.6 µM | KM12 > 100 µM | M14 > 100 µM | NCI-H23 > 100 µM | NCI-H460 > 100 µM | OVCAR-4 > 100 µM | SF-268 > 100 µM | SK-MEL-28 > 100 µM | SNB-78 > 100 µM | TK-10 > 100 µM | UACC-62 > 100 µM

O=c1nc(-c2ccccc2)c2c3c(cccn13)CCC2
inactive: CCRF-CEM > 100 µM | HCC 2998 > 100 µM | HCT-116 > 100 µM | HOP-62 > 100 µM | HT-29 > 100 µM | K562 > 100 µM | KM12 > 100 µM | M14 > 100 µM | NCI-H23 > 100 µM | NCI-H460 > 100 µM | OVCAR-4 > 100 µM | SF-268 > 100 µM | SK-MEL-28 > 100 µM | SNB-78 > 100 µM | TK-10 > 100 µM | UACC-62 > 100 µM

Cc1nc(-n2nc(-c3ccccc3)cc2-c2ccccc2)sc1C(/C=C/c1ccc([N+](=O)[O-])cc1)=N/NC(N)=S
inactive: CCRF-CEM 22.2 µM | COLO 205 33.2 µM | HCC 2998 23.1 µM | HCT-116 15.8 µM | HOP-62 14 µM | HT-29 23.7 µM | K562 21.6 µM | KM12 21.7 µM | M14 43 µM | NCI-H23 27.8 µM | NCI-H460 60.3 µM | SF-268 31.4 µM | SK-MEL-28 91.8 µM | SNB-78 18.7 µM | TK-10 > 100 µM | UACC-62 54.8 µM

Nc1ccccc1/C(O)=C1/CCOC1=O
inactive: CCRF-CEM > 100 µM | COLO 205 > 100 µM | HCT-116 > 100 µM | HOP-62 > 100 µM | HT-29 > 100 µM | K562 > 100 µM | KM12 > 100 µM | M14 > 100 µM | NCI-H23 > 100 µM | NCI-H460 > 100 µM | OVCAR-4 > 100 µM | SF-268 > 100 µM | SK-MEL-28 > 100 µM | SNB-78 > 100 µM | TK-10 > 100 µM | UACC-62 > 100 µM

O=[N+]([O-])C=C1c2ccccc2-c2ccccc21
inactive: CCRF-CEM 4.91 µM | COLO 205 1.86 µM | HCC 2998 16.8 µM | HCT-116 4.75 µM | HOP-62 17.5 µM | HT-29 20 µM | K562 2.52 µM | KM12 17.3 µM | M14 12.7 µM | NCI-H23 16.8 µM | NCI-H460 20.1 µM | OVCAR-4 14.2 µM | SF-268 19.9 µM | SK-MEL-28 17.2 µM | SNB-78 17.4 µM | TK-10 18.3 µM

CCC(C)CN1C(=O)NC(C)(Cc2ccccc2)C1=O (stereo unspecified)
inactive: COLO 205 > 100 µM | HCC 2998 > 100 µM | HOP-62 > 100 µM | HT-29 > 100 µM | KM12 > 100 µM | M14 > 100 µM | NCI-H23 > 100 µM | NCI-H460 > 100 µM | SF-268 > 100 µM | SK-MEL-28 > 100 µM | SNB-78 > 100 µM | TK-10 > 100 µM

CC1=NN(C(=O)c2ccc([N+](=O)[O-])cc2)C(=O)C1/N=N/c1ccccc1C(=O)O (stereo unspecified)
inactive: CCRF-CEM 75 µM | COLO 205 > 100 µM | HCC 2998 > 100 µM | HCT-116 > 100 µM | HT-29 > 100 µM | K562 71.3 µM | KM12 > 100 µM | NCI-H23 > 100 µM | NCI-H460 > 100 µM | SF-268 > 100 µM | SK-MEL-28 > 100 µM | SNB-78 > 100 µM | TK-10 > 100 µM | UACC-62 45 µM

CC1(C)C(=O)C(O)=CC2C1=CCC1C2(C)C(=O)CC2(C)C(C(C)(O)C(=O)CC(O)C(C)(C)O)C(O)CC12C (stereo unspecified)
inactive: CCRF-CEM 3.01 µM | COLO 205 3.67 µM | HCC 2998 3.35 µM | HCT-116 3.97 µM | HOP-62 4.63 µM | HT-29 3.35 µM | K562 4.66 µM | KM12 9.14 µM | M14 3.54 µM | NCI-H23 10.9 µM | NCI-H460 3.39 µM | OVCAR-4 2.82 µM | SF-268 3.11 µM | SK-MEL-28 2.69 µM | SNB-78 3.78 µM | TK-10 2.54 µM | UACC-62 5.52 µM

N=C(c1ccccc1)N(O)C1CCCCC1
inactive: COLO 205 > 100 µM | HCC 2998 > 100 µM | HCT-116 > 100 µM | HOP-62 > 100 µM | HT-29 > 100 µM | KM12 > 100 µM | M14 > 100 µM | NCI-H23 > 100 µM | NCI-H460 > 100 µM | OVCAR-4 > 100 µM | SF-268 > 100 µM | SK-MEL-28 > 100 µM | SNB-78 > 100 µM | TK-10 > 100 µM

CSCCCNC(=O)[C@H](CSC)NC(=O)c1csc(CCNC(=O)[C@@H](NSc2ccccc2[N+](=O)[O-])C(C)O)n1 (stereo partly specified)
inactive: BT-549 > 100 µM | CCRF-CEM > 100 µM | COLO 205 > 100 µM | HCC 2998 > 100 µM | HCT-116 > 100 µM | HOP-62 > 100 µM | HT-29 > 100 µM | Hs-578T > 100 µM | K562 > 100 µM | KM12 > 100 µM | M14 > 100 µM | MCF7 > 100 µM | NCI-H23 > 100 µM | NCI-H460 > 100 µM | OVCAR-4 > 100 µM | SF-268 > 100 µM | SK-MEL-28 > 100 µM | TK-10 > 100 µM | UACC-62 > 100 µM

CN(/N=C\c1ccnc2ccccc12)c1ccc([N+](=O)[O-])cc1
inactive: CCRF-CEM 19.5 µM | COLO 205 > 100 µM | HCC 2998 > 100 µM | HCT-116 11.6 µM | HOP-62 > 100 µM | HT-29 > 100 µM | K562 25.3 µM | KM12 16 µM | M14 97.1 µM | NCI-H23 > 100 µM | NCI-H460 5.73 µM | SF-268 9.51 µM | SK-MEL-28 > 100 µM | SNB-78 > 100 µM | TK-10 > 100 µM | UACC-62 84.7 µM

Cc1cccc(C(C)(C)C)c1NC(=O)CC1C(=O)Nc2ccccc2[S+]1[O-] (stereo unspecified)
inactive: COLO 205 21.1 µM | HCC 2998 68.1 µM | HCT-116 40.6 µM | HOP-62 > 100 µM | HT-29 65 µM | K562 34.1 µM | KM12 73.6 µM | M14 43.6 µM | NCI-H23 26.4 µM | NCI-H460 54.1 µM | OVCAR-4 18.5 µM | SF-268 > 100 µM | SK-MEL-28 41.5 µM | SNB-78 54.6 µM | TK-10 46.5 µM

COC(=O)[C@]12CC[C@H]3CN(C(=O)OCc4ccccc4)[C@H]([C@H]31)[C@H](C(=O)OCC[Si](C)(C)C)N2S(=O)(=O)c1ccc(C)cc1
inactive: BT-549 > 100 µM | CCRF-CEM 54 µM | COLO 205 17.5 µM | HCC 2998 > 100 µM | HCT-116 23 µM | HOP-62 > 100 µM | HT-29 42.7 µM | Hs-578T > 100 µM | K562 15.3 µM | KM12 97.3 µM | M14 26.5 µM | MCF7 37.3 µM | NCI-H23 > 100 µM | NCI-H460 > 100 µM | OVCAR-4 11.4 µM | SF-268 > 100 µM | SK-MEL-28 > 100 µM | TK-10 > 100 µM | UACC-62 > 100 µM

COC(=O)c1c(C(=O)OC)c(-c2ccccc2)n(-c2ccccc2)c(=O)c1-c1ccccc1
inactive: CCRF-CEM > 100 µM | COLO 205 > 100 µM | HCC 2998 > 100 µM | HCT-116 58.7 µM | HOP-62 27.6 µM | HT-29 > 100 µM | K562 > 100 µM | KM12 > 100 µM | M14 > 100 µM | NCI-H23 72.8 µM | NCI-H460 98.6 µM | OVCAR-4 25.2 µM | SF-268 55.7 µM | SNB-78 54.7 µM | TK-10 > 100 µM | UACC-62 61 µM

O=C(O)c1cc(N(Cc2ccccc2O)Cc2cc(O)ccc2O)ccc1O [LAVENDUSTIN A]
inactive: BT-549 6.21 µM | CCRF-CEM 45.4 µM | COLO 205 > 100 µM | HCC 2998 > 100 µM | HCT-116 > 100 µM | HOP-62 > 100 µM | HT-29 > 100 µM | Hs-578T 19.8 µM | K562 > 100 µM | KM12 > 100 µM | M14 > 100 µM | MCF7 > 100 µM | NCI-H23 > 100 µM | NCI-H460 > 100 µM | OVCAR-4 > 100 µM | SF-268 > 100 µM | SK-MEL-28 > 100 µM | TK-10 > 100 µM | UACC-62 > 100 µM
